{"source": "patent US20200377505A1", "about": "“BENZIMIDAZOLES AND AZA-BENZIMIDAZOLES, AND METHODS OF USE THEREOF” (Goldfinch Bio., Inc., priority 2017, published 2020)", "key": {"human TRPC5": {"target": "T1, human TRPC5 (Homo sapiens, UniProt Q9UL62)", "T1 construct": "expressed in transfected cells; host or cells: HEK 293", "T1 sequence (Q9UL62 1-973)": "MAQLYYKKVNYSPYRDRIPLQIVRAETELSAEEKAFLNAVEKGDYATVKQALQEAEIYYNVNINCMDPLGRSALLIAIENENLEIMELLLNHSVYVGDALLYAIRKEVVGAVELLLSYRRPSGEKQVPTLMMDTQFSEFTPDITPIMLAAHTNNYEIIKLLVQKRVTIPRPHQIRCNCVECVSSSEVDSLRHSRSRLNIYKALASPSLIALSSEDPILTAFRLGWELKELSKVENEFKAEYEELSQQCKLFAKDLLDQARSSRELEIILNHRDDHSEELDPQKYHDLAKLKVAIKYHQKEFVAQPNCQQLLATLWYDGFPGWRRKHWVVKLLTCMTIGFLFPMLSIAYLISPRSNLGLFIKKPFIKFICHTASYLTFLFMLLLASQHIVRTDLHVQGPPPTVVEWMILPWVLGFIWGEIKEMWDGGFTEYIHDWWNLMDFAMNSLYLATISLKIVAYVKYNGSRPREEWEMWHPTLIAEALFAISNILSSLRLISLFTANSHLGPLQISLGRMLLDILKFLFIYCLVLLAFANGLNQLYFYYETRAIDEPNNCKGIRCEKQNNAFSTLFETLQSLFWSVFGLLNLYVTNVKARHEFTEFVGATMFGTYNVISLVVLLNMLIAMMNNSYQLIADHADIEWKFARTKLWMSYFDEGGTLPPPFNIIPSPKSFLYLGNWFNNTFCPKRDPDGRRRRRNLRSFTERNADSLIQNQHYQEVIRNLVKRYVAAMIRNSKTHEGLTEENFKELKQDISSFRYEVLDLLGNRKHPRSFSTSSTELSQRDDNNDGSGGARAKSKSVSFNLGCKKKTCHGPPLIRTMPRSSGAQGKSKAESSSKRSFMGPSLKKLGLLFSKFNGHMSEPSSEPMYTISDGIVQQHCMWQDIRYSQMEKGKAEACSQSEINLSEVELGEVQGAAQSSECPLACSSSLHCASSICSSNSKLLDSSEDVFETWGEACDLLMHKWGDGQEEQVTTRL", "assay": "TRPC5 fluorescence-based assay (Ca2+ flux assay in FLIPR format), cells overexpressing TRPC5", "type": "cell-based", "details": "5 μM of test compound, following Carbachol stimulation"}, "human TRPC6": {"target": "T2, human TRPC6 (Homo sapiens, UniProt Q9Y210)", "T2 construct": "expressed in transfected cells; host or cells: HEK 293", "T2 sequence (Q9Y210 1-931)": "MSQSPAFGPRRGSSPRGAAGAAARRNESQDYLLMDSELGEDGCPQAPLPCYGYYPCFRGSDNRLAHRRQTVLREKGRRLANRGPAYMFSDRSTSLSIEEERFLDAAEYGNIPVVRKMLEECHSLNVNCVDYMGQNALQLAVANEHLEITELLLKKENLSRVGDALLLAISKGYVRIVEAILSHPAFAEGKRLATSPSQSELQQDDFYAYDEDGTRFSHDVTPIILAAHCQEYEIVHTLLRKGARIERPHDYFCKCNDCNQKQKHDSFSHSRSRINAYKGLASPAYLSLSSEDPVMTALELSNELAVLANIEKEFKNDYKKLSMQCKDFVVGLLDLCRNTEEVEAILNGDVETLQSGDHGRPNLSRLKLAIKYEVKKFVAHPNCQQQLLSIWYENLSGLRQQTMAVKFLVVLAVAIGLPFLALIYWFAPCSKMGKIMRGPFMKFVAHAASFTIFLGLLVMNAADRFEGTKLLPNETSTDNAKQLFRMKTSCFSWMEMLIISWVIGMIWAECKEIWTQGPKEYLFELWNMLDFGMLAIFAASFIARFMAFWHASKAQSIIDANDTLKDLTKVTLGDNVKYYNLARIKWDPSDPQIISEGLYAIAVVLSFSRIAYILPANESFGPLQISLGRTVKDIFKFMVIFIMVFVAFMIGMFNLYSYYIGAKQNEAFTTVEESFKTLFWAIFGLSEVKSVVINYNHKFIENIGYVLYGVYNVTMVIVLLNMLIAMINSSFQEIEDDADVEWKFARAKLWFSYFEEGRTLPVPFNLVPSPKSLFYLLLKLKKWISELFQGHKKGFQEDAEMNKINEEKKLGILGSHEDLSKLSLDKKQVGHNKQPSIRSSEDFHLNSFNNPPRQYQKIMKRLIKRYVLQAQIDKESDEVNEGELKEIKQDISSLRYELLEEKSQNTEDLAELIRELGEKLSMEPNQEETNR", "assay": "TRPC6 fluorescence-based assay (Ca2+ flux assay in FLIPR format), cells overexpressing TRPC6", "type": "cell-based", "details": "5 μM of test compound, following Carbachol stimulation"}}}
{"smiles": "c1ccc(Cc2nc3ccccc3n2CCCOc2ccccc2)cc1", "values": [{"measurement": "inhibition at 5 µM", "setting": "human TRPC5", "result": 85.9, "unit": "%"}, {"measurement": "inhibition at 5 µM", "setting": "human TRPC6", "result": 92.5, "unit": "%"}]}
{"smiles": "CCn1c(Cc2ccc(OC)c(OC)c2)nc2ccccc21", "values": [{"measurement": "inhibition at 5 µM", "setting": "human TRPC5", "result": 59, "unit": "%"}, {"measurement": "inhibition at 5 µM", "setting": "human TRPC6", "result": 94, "unit": "%"}]}
{"smiles": "O=C(Cn1c(NCCCO)nc2ccccc21)C12CC3CC(CC(C3)C1)C2", "values": [{"measurement": "inhibition at 5 µM", "setting": "human TRPC5", "result": 58.2, "unit": "%"}, {"measurement": "inhibition at 5 µM", "setting": "human TRPC6", "result": 28.4, "unit": "%"}]}
{"smiles": "COc1ccccc1CNc1nc2ccccc2n1C(C)C", "values": [{"measurement": "inhibition at 5 µM", "setting": "human TRPC5", "result": 57.9, "unit": "%"}, {"measurement": "inhibition at 5 µM", "setting": "human TRPC6", "result": 53.9, "unit": "%"}]}
{"smiles": "Cc1cccc(OCCn2c(Cc3ccccc3)nc3ccccc32)c1", "values": [{"measurement": "inhibition at 5 µM", "setting": "human TRPC5", "result": 56.4, "unit": "%"}, {"measurement": "inhibition at 5 µM", "setting": "human TRPC6", "result": 52.9, "unit": "%"}]}
{"smiles": "CCn1c(NC2CCCCC2)nc2ccccc21", "values": [{"measurement": "inhibition at 5 µM", "setting": "human TRPC5", "result": 55.5, "unit": "%"}, {"measurement": "inhibition at 5 µM", "setting": "human TRPC6", "result": 9.58, "unit": "%"}]}
{"smiles": "CC(NCc1nc2ccccc2n1C)C12CC3CC(CC(C3)C1)C2", "note": "(stereo not drawn)", "values": [{"measurement": "inhibition at 5 µM", "setting": "human TRPC5", "result": 55.2, "unit": "%"}, {"measurement": "inhibition at 5 µM", "setting": "human TRPC6", "result": 69.7, "unit": "%"}]}
{"smiles": "Brc1cccc(CNc2nc3ccccc3n2CCN2CCCCC2)c1", "values": [{"measurement": "inhibition at 5 µM", "setting": "human TRPC5", "result": 55, "unit": "%"}, {"measurement": "inhibition at 5 µM", "setting": "human TRPC6", "result": 51, "unit": "%"}]}
{"smiles": "COc1ccc(/C=N/c2nc3ccccc3n2Cc2ccc(C)cc2)cc1", "values": [{"measurement": "inhibition at 5 µM", "setting": "human TRPC5", "result": 53.4, "unit": "%"}, {"measurement": "inhibition at 5 µM", "setting": "human TRPC6", "result": 41.5, "unit": "%"}]}
{"smiles": "COc1ccc(CNc2nc3ccccc3n2Cc2ccc(Cl)cc2)cc1OC", "values": [{"measurement": "inhibition at 5 µM", "setting": "human TRPC5", "result": 53.4, "unit": "%"}, {"measurement": "inhibition at 5 µM", "setting": "human TRPC6", "result": 31.3, "unit": "%"}]}
{"smiles": "Nc1nc2ccccc2n1Cc1ccc(Cl)c(Cl)c1", "values": [{"measurement": "inhibition at 5 µM", "setting": "human TRPC5", "result": 52.4, "unit": "%"}, {"measurement": "inhibition at 5 µM", "setting": "human TRPC6", "result": 84.3, "unit": "%"}]}
{"smiles": "Cc1ccc(Cn2c(CN3CCC(CN)C3)nc3ccccc32)cc1", "note": "(stereo not drawn)", "values": [{"measurement": "inhibition at 5 µM", "setting": "human TRPC5", "result": 51.8, "unit": "%"}, {"measurement": "inhibition at 5 µM", "setting": "human TRPC6", "result": 51, "unit": "%"}]}
{"smiles": "CCn1c(NCc2cc(C)ccc2O)nc2ccccc21", "values": [{"measurement": "inhibition at 5 µM", "setting": "human TRPC5", "result": 51.8, "unit": "%"}, {"measurement": "inhibition at 5 µM", "setting": "human TRPC6", "result": 3.16, "unit": "%"}]}
{"smiles": "CC(C)(C)NC(=O)Cn1c(NCc2ccccc2)nc2ccccc21", "values": [{"measurement": "inhibition at 5 µM", "setting": "human TRPC5", "result": 51, "unit": "%"}, {"measurement": "inhibition at 5 µM", "setting": "human TRPC6", "result": 3.97, "unit": "%"}]}
{"smiles": "COc1ccc(Cc2nc3ccccc3n2C(C)c2ccccc2)cc1", "note": "(stereo not drawn)", "values": [{"measurement": "inhibition at 5 µM", "setting": "human TRPC5", "result": 51, "unit": "%"}, {"measurement": "inhibition at 5 µM", "setting": "human TRPC6", "result": 45, "unit": "%"}]}
{"smiles": "C=CCn1c(NCc2cccs2)nc2ccccc21", "values": [{"measurement": "inhibition at 5 µM", "setting": "human TRPC5", "result": 50.7, "unit": "%"}, {"measurement": "inhibition at 5 µM", "setting": "human TRPC6", "result": 14.6, "unit": "%"}]}
{"smiles": "CCCCn1c(NCc2cccs2)nc2ccccc21", "note": "[drawing 80]", "values": [{"measurement": "inhibition at 5 µM", "setting": "human TRPC5", "result": 66.1, "unit": "%"}, {"measurement": "inhibition at 5 µM", "setting": "human TRPC6", "result": 81.3, "unit": "%"}]}
{"smiles": "CCCCn1c(NCc2cccs2)nc2ccccc21", "note": "[drawing 82]", "values": [{"measurement": "Inhibition of TRPC5 (A)", "setting": "human TRPC5; 5 µM", "result": 65.84, "unit": "%"}, {"measurement": "Inhibition of TRPC6 (A)", "setting": "human TRPC6; 5 µM", "result": 72.31, "unit": "%"}]}
